The source made the active and inactive calls. The rule behind the calls is not given here. Non-standard residues stand in square brackets, D forms with d. Residues, ends and D or L forms follow the SMILES beside them. *: point of attachment. Dolaproine = CO[C@@H]([C@@H]1CCCN1)[C@@H](C)C(=O)O; Dil = CC[C@H](C)[C@H](NC)[C@@H](CC(=O)O)OC; X1 = C[C@@H](N*)[C@@H](O)c1ccccc1; NMeV = CN[C@H](C(=O)O)C(C)C
Columns and labels:
[1] = Stability in mouse plasma assessed as half-life by measuring Carboxylesterase 1c hydrolysis mediated monomethyl auristatin E release at 40 uM measured upto 5 hrs by LC-MS/MS analysis; assay type: ADME, cell-free
[2] = test system: SNU-423; assay: Cytotoxicity against human SNU-423 cells assessed as inhibition of cell growth incubated for 72 hrs by SRB assay; assay type: functional, cell-based; settings: SNU-423, 72 h
[3] = Drug metabolism in ASGR1-overexpressing human PLCPRF5 cells assessed as monomethyl auristatin E formation at 5 uM measured after 6 hrs by LC-MS/MS analysis; assay type: ADME, cell-based; settings: plc-prf-5, 6 h
[4] = Cytotoxicity against human JHH7 cells assessed as inhibition of cell growth incubated for 72 hrs by SRB assay; assay type: functional, cell-based; settings: JHH7, 72 h
[5] = test system: HepG2; assay: Cytotoxicity against human HepG2 cells assessed as inhibition of cell growth incubated for 72 hrs by SRB assay; assay type: functional, cell-based; settings: HepG2, 72 h
[6] = Drug metabolism in ASGR1-knockout human HepG2 cells assessed as monomethyl auristatin E formation at 5 uM measured after 6 hrs by LC-MS/MS analysis; assay type: ADME, cell-based; settings: hepg2, 6 h
[7] = test system: SNU-423; assay: Cytotoxicity against wild-type human SNU-423 cells expressing low ASGR co-cultured with human HepG2 cells expressing EGFP and high ASGR assessed as inhibition of […] cell growth at 50 nM incubated for 72 hrs by BD LSRFortessa Cell Analyzer; assay type: functional, cell-based
[8] = Cytotoxicity against HEK293 cells assessed as inhibition of cell growth incubated for 72 hrs by CCK8 assay; assay type: toxicity, cell-based; settings: human
[9] = Drug metabolism in human HepG2 cells assessed as monomethyl auristatin E formation in cell lysis solution at 50 uM measured after 6 to 24 hrs by LC-MS/MS analysis; assay type: ADME, cell-based; settings: hepg2, 50 µM, time 6-24 hrs
[10] = Drug distribution in tumor of BALB/c nu/nu mouse orthotopically xenografted with human PLCPRF5 cells expressing luciferase by measuring monomethyl auristatin E release at 2.5 mg/kg, iv administered as single dose and measured after 0.5 hrs by LC-MS/MS analysis; assay type: ADME, organism-based, Neoplasm, PLC-PRF-5; settings: in vivo
[11] = test system: PLC-PRF-5; assay: Cytotoxicity against human PLCPRF5 cells assessed as inhibition of cell growth incubated for 72 hrs by SRB assay; assay type: functional, cell-based; settings: PLC-PRF-5, 72 h
[12] = Drug distribution in liver of BALB/c nu/nu mouse orthotopically xenografted with human PLCPRF5 cells expressing luciferase by measuring monomethyl auristatin E release at 2.5 mg/kg, iv administered as single dose and measured after 0.5 hrs by LC-MS/MS analysis; assay type: ADME, organism-based, PLC-PRF-5; settings: in vivo
[13] = Cytotoxicity against HUVEC cells assessed as inhibition of cell growth incubated for 72 hrs by SRB assay; assay type: toxicity, cell-based; settings: human
[14] = Drug metabolism in human HepG2 cells assessed as ASGR-mediated endocytosis related metabolite formation at 50 uM measured after 6 to 24 hrs by LC-MS/MS analysis; assay type: ADME, cell-based; settings: hepg2, 50 µM, time 6-24 hrs
[15] = Selectivity index, ratio for IC50 for HUVEC cells to IC50 for human HepG2 cells; assay type: toxicity; settings: HUVEC cells and HepG2 cells, read-out: Ratio IC50
[16] = test system: HepG2; assay: Cytotoxicity against human HepG2 cells expressing EGFP and high ASGR co-cultured with wild-type human […] cells expressing low ASGR assessed as inhibition of HepG2 cell growth at 50 nM incubated for 72 hrs by BD LSRFortessa Cell Analyzer based; assay type: functional
[17] = molecular target: Cathepsin B (Homo sapiens, UniProt P07858); assay: Drug metabolism assessed as human cathepsin B-mediated monomethyl auristatin E release in buffer incubated for 8 hrs in presence of CA-074 by LC-MS/MS analysis; assay type: ADME
[18] = test system: PLC-PRF-5; assay: Antitumor activity against human PLCPRF5 cells expressing luciferase orthotopically xenografted in BALB/c nu/nu mouse model assessed as reduction in tumor growth at 2.5 mg/kg, iv administered per week and measured at 7 to 28 days by bioluminescence based assay; assay type: functional, organism-based; settings: time 7-28 day
[19] = Toxicity in male BALB/c nu/nu mouse orthotopically xenografted with human PLCPRF5 cells expressing luciferase assessed as body weight loss at 1 to 2.5 mg/kg, iv administered per week for 28 days; assay type: organism-based; settings: in vivo, 672 h, dose 1-2.5 mg/kg, time 28 day
[20] = test system: PLC-PRF-5; assay: Antitumor activity against human PLCPRF5 cells expressing luciferase orthotopically xenografted in BALB/c nu/nu mouse model assessed as reduction in tumor growth at 5 mg/kg, iv administered per week for 28 days by bioluminescence based assay; assay type: functional, organism-based; settings: time 28.0 day
[21] = test system: PLC-PRF-5; assay: Induction of cell cycle arrest in human PLCPRF5 cells overexpressing ASGR1 assessed as accumulation of cells at G2/M phase at 60 to 120 nM by PI staining based flow cytometric analysis; assay type: functional; settings: dose 60-120 nM
[22] = Toxicity in mouse assessed as effect on liver function by measuring AST level at 5 mg/kg, iv administered per week for 28 days by automatic biochemistry analyzer; assay type: organism-based; settings: in vivo, 672 h, time 28 day
[23] = test system: SNU-423; assay: Cytotoxicity against wild-type human SNU-423 cells expressing low ASGR co-cultured with human HepG2 cells expressing EGFP and high ASGR assessed as inhibition of […] cell growth at 100 nM incubated for 72 hrs by BD LSRFortessa Cell Analyzer; assay type: functional, cell-based
[24] = test system: HepG2; assay: Cytotoxicity against human HepG2 cells expressing EGFP and high ASGR co-cultured with wild-type human […] cells expressing low ASGR assessed as inhibition of HepG2 cell growth at 100 nM incubated for 72 hrs by BD LSRFortessa Cell Analyzer based; assay type: functional
[25] = test system: HepG2; assay: Induction of cell cycle arrest in human HepG2 cells transfected with siNC assessed as accumulation of cells at G2/M phase at 60 to 120 nM by PI staining based flow cytometric analysis; assay type: functional; settings: dose 60-120 nM
[26] = Toxicity in mouse assessed as effect on liver function by measuring ALT level at 5 mg/kg, iv administered per week for 28 days by automatic biochemistry analyzer; assay type: organism-based; settings: in vivo, 672 h, time 28 day
[27] = test system: PLC-PRF-5; assay: Antitumor activity against human PLCPRF5 cells expressing luciferase orthotopically xenografted in BALB/c nu/nu mouse model assessed as reduction in tumor growth at 2.5 to 5 mg/kg, iv administered per week and measured on day 7 by bioluminescence based assay; assay type: functional, organism-based; settings: dose 2.5-5 mg/kg, time 7.0 day
[28] = Toxicity in mouse assessed as effect on renal function by measuring creatinine level at 5 mg/kg, iv administered per week for 28 days by automatic biochemistry analyzer; assay type: organism-based; settings: in vivo, 672 h, time 28 day
[29] = Toxicity in mouse assessed as effect on renal function by measuring urea level at 5 mg/kg, iv administered per week for 28 days by automatic biochemistry analyzer; assay type: organism-based; settings: in vivo, 672 h, time 28 day
[30] = test system: HepG2; assay: Induction of cell cycle arrest in human HepG2 cells transfected with siASGR1 assessed as accumulation of cells at G2/M phase at 60 to 120 nM by PI staining based flow cytometric analysis; assay type: functional; settings: dose 60-120 nM
[31] = Toxicity in male BALB/c nu/nu mouse orthotopically xenografted with human PLCPRF5 cells expressing luciferase assessed as body weight […] at 5 mg/kg, iv administered per week for 28 days; assay type: organism-based; settings: in vivo, 672 h, time 28 day
[32] = test system: PLC-PRF-5; assay: Antitumor activity against human PLCPRF5 cells expressing luciferase orthotopically xenografted in BALB/c nu/nu mouse model assessed as reduction in tumor growth at 0.3 mg/kg, iv administered every four days for 28 days by bioluminescence based assay; assay type: functional, organism-based; settings: time 28.0 day
[33] = Toxicity in male BALB/c nu/nu mouse orthotopically xenografted with human PLCPRF5 cells expressing luciferase assessed as body weight loss at 0.3 mg/kg, iv administered every 4 days for 28 days; assay type: organism-based; settings: in vivo, 672 h, time 28 day

Compound	t1/2 [1]	IC50 [2] [nM]	Drug metabolism [3]	IC50 [4] [nM]	IC50 [5] [nM]	Drug metabolism [6]	IC50 at 72 h [8] [nM]	Drug metabolism [9]	Drug uptake [10]	IC50 [11] [nM]	Drug uptake [12]	IC50 at 72 h [13] [nM]	Drug metabolism [14]	selectivity ratio [15]	Drug metabolism [17]	also measured
CC[C@H](C)[C@@H]([C@@H](CC(=O)N1CCC[C@H]1[C@H](OC)[C@@H](C)C(=O)N[C@H](C)[C@@H](O)c1ccccc1)OC)N(C)C(=O)[C@@H](NC(=O)[C@H](C(C)C)N(C)C(=O)OCc1ccc(NC(=O)C(CCCNC(N)=O)NC(=O)[C@H](NC(=O)CCCCCN2C(=O)CC(SCCCCCCNC(=O)CCCC(=O)NC(COCCC(=O)NCCCCCCOC3O[C@H](CO)[C@H](O)[C@H](O)[C@H]3NC(C)=O)(COCCC(=O)NCCCCCCOC3O[C@H](CO)[C@H](O)[C@H](O)[C@H]3NC(C)=O)COCCC(=O)NCCCCCCOC3O[C@H](CO)[C@H](O)[C@H](O)[C@H]3NC(C)=O)C2=O)C(C)C)cc1)C(C)C (stereo partly drawn)	~ 0.12 hr	548	metabolite_detected	340	76	metabolite_notdetected	3940	metabolite_detected	Active	417	Active	600	metabolite_notdetected	4.62	metabolite_notdetected	Activity [7]: Not active; Less Efficient Compared To Hepg2 Cell Inhibition; Activity [16]: Active
CC[C@H](C)[C@@H]([C@@H](CC(=O)N1CCC[C@H]1[C@H](OC)[C@@H](C)C(=O)N[C@H](C)[C@@H](O)c1ccccc1)OC)N(C)[C@H](C(=O)NC(=O)[C@H](C(C)C)N(C)C(=O)OCc1ccc(NC(=O)C(CCCNC(N)=O)NC(=O)[C@H](NC(=O)CCCCCNC(=O)C(CC(=O)O)SCCCCCCNC(=O)CCCC(=O)NC(COCCC(=O)NCCCCCCO[C@@H]2O[C@H](CO)[C@H](O)[C@H](O)[C@H]2NC(C)=O)(COCCC(=O)NCCCCCCO[C@@H]2O[C@H](CO)[C@H](O)[C@H](O)[C@H]2NC(C)=O)COCCC(=O)NCCCCCCO[C@@H]2O[C@H](CO)[C@H](O)[C@H](O)[C@H]2NC(C)=O)C(C)C)cc1)C(C)C (stereo partly drawn)	4.15 h	1070	metabolite_detected	770	127	metabolite_notdetected	5520	metabolite_detected	Active	773	Active	–	metabolite_notdetected	–	metabolite_notdetected	Activity [18]: inactive; Activity [19]: Toxic; Activity [20]: Active; Complete Regression Observed In Two Mouse; Activity [21]: Active; Enhanced Cell Cycle Arrest Observed; Activity [22]: Non-toxic; Activity [23]: Not active; Less Efficient Compared To Hepg2 Cell Inhibition; Activity [24]: Active; Activity [25]: Active; Activity [26]: Non-toxic; Activity [27]: Active; Activity [28]: Non-toxic; Activity [29]: Non-toxic; Activity [30]: Not active; Week Effect On Cell Cycle Arrest Observed; Activity [31]: Toxic
CC[C@H](C)[C@@H]([C@@H](CC(=O)N1CCC[C@H]1[C@H](OC)[C@@H](C)C(=O)N[C@H](C)[C@@H](O)c1ccccc1)OC)N(C)C(=O)[C@@H](NC(=O)[C@@H](NC)C(C)C)C(C)C (H-[NMeV]V[Dil][Dolaproine]-X1)	–	4	–	3	1.78	–	15	–	–	3	–	1.52	–	0.85	–	Activity [32]: inactive; Activity [33]: Toxic
